Results published in the NIST ThermoML archive (doi:10.1016/j.jct.2011.05.028).
Several values for one entry are separate records, joined by “and”; a condition that tells them apart may be missing. Equal values may be shown once.

Settings: Liquid, Transpiration method

[N-]=[N+]=NC1CCCCC1 [azidocyclohexane]
Settings | vapor or sublimation pressure [kPa]
279.6 K | 0.0856
281.6 K | 0.1002
283.4 K | 0.1159
285.3 K | 0.1366
286.6 K | 0.1432
287.2 K | 0.1571
288.9 K | 0.1754
290.2 K | 0.1885
291.9 K | 0.2153
293.2 K | 0.231
295.5 K | 0.2749
297.1 K | 0.3013
298.3 K | 0.3332
300.1 K | 0.3875
301.3 K | 0.3917
303.1 K | 0.4574

[N-]=[N+]=NCSc1ccccc1 [azidomethyl phenyl sulfide]
Settings | vapor or sublimation pressure [kPa]
299.6 K | 0.00448
303.5 K | 0.0064
307.3 K | 0.00918
310.3 K | 0.01158
313.3 K | 0.01502
316.2 K | 0.01866
319.2 K | 0.02463
324.2 K | 0.03511

CCOC(=O)CN=[N+]=[N-] [ethyl azidoacetate]
Settings | vapor or sublimation pressure [kPa]
301.4 K | 0.1784
304.8 K | 0.2378
308.3 K | 0.3083
314.3 K | 0.4549
320.2 K | 0.6452
323.2 K | 0.7874
326.2 K | 0.9687
332.2 K | 1.38
338.1 K | 1.929
341.1 K | 2.397
344.3 K | 2.714

[N-]=[N+]=NCCO [2-azidoethanol]
Settings | vapor or sublimation pressure [kPa]
284.6 K | 0.021
287.3 K | 0.0267
288.8 K | 0.0298
291.8 K | 0.0398
294.8 K | 0.052
297.7 K | 0.0664
300.7 K | 0.088
303.6 K | 0.1076
306.6 K | 0.1398
309 K | 0.1676
309.6 K | 0.1718
312 K | 0.2073
312.6 K | 0.2168
316 K | 0.2782
316.1 K | 0.2882

[N-]=[N+]=NC1CCCC1 [cyclopentyl azide]
Settings | vapor or sublimation pressure
275.5 K | 0.3701 kPa
279.2 K | 0.4454 kPa
281.3 K | 0.48 kPa
283.2 K | 0.5664 kPa
285.3 K | 0.6268 kPa
287 K | 0.722 kPa
288.7 K | 0.7419 kPa
291.1 K | 0.8591 kPa
293 K | 0.9879 kPa and 0.9833 kPa
295.1 K | 1.102 kPa
295.8 K | 1.1 kPa
297.2 K | 1.342 kPa
298.5 K | 1.418 kPa
299.1 K | 1.45 kPa
300.8 K | 1.466 kPa
301.1 K | 1.615 kPa
303.1 K | 1.88 kPa
303.3 K | 1.899 kPa
305.8 K | 1.953 kPa
306.1 K | 2.066 kPa
308.2 K | 2.239 kPa
310.7 K | 2.494 kPa
313.3 K | 2.898 kPa
317.9 K | 3.913 kPa
323.1 K | 4.896 kPa
327.7 K | 5.951 kPa
333.4 K | 7.854 kPa

CCOCCN=[N+]=[N-] [(azidoethoxy)ethane]
Settings | vapor or sublimation pressure [kPa]
274.1 K | 0.2423
275.7 K | 0.2804
277.1 K | 0.3181
277.9 K | 0.3191
278.7 K | 0.3325
279.4 K | 0.3333
280.2 K | 0.3892
281.5 K | 0.4113
282.4 K | 0.4364
283.2 K | 0.4705
284.8 K | 0.5331
286.2 K | 0.5994
287.8 K | 0.6765
289.2 K | 0.7246
290.7 K | 0.7842
292.2 K | 0.8444
292.3 K | 0.8535
293.7 K | 0.9715
295.2 K | 1.061
296.7 K | 1.173
298.2 K | 1.313
300.7 K | 1.55

CC(=O)OC1CCCC1 [cyclopentyl ethanoate]
Settings | vapor or sublimation pressure [kPa]
274.1 K | 0.0795
276.1 K | 0.0894
278.2 K | 0.1067
281.3 K | 0.1295
283.2 K | 0.1597
286.3 K | 0.1983
288.4 K | 0.2248
291.2 K | 0.278
293.2 K | 0.3029
296.4 K | 0.4022
298.2 K | 0.4443
303.2 K | 0.6114
308.4 K | 0.8519
